Reference: ChEMBL document CHEMBL3091315, “PDE2 inhibition: potential for the treatment of cognitive disorders” (Bioorg Med Chem Lett, 2013)

Columns and labels:
[1] = Drug uptake in Wistar rat striatum at 0.03 mg/kg, iv after 5 mins by LC-MS analysis; assay type: ADME, organism-based; design: dose 0.03 mg/kg, route intravenous; conditions: read-out: Drug uptake
Homo sapiens [2] = species: Homo sapiens; test: Selectivity ratio of IC50 for human PDE10A to IC50 for human PDE2A
[3] = Clearance in iv dosed rat; assay type: ADME, organism-based; conditions: in vivo
[4] = Half life in iv dosed rat; assay type: ADME, organism-based; conditions: in vivo
[5] = Ratio of unbound drug level in brain to plasma in rat; conditions: brain and plasma (unbound), read-out: K(p,uu,brain)
Cerebellum [6] = test: Biodistribution in cerebellum of rat measured at 10 mins by microPET image analysis; assay type: ADME, organism-based; conditions: in vivo
Cerebellum [7] = test: Biodistribution in cerebellum of rat measured at 2 mins by microPET image analysis; assay type: ADME, organism-based; conditions: in vivo
Cerebrum [8] = test: Biodistribution in cerebrum of rat measured at 10 mins by microPET image analysis; assay type: ADME, organism-based; conditions: in vivo
Cerebrum [9] = test: Biodistribution in cerebrum of rat measured at 2 mins by microPET image analysis; assay type: ADME, organism-based; conditions: in vivo
Bos taurus [10] = species: Bos taurus; test: Inhibition of bovine vascular smooth muscle PDE4 using cAMP/cGMP as substrate at 10 uM relative to control; assay type: tissue-based; conditions: Muscle tissue
Bos taurus [11] = species: Bos taurus; test: Inhibition of bovine vascular smooth muscle PDE3 using cAMP/cGMP as substrate at 10 uM relative to control; assay type: tissue-based; conditions: Muscle tissue
[12] = target: T1, cGMP-dependent 3',5'-cyclic phosphodiesterase (Homo sapiens, UniProt O00408); assay type: cell-based, SF-21
T1 sequence (O00408 whole entry): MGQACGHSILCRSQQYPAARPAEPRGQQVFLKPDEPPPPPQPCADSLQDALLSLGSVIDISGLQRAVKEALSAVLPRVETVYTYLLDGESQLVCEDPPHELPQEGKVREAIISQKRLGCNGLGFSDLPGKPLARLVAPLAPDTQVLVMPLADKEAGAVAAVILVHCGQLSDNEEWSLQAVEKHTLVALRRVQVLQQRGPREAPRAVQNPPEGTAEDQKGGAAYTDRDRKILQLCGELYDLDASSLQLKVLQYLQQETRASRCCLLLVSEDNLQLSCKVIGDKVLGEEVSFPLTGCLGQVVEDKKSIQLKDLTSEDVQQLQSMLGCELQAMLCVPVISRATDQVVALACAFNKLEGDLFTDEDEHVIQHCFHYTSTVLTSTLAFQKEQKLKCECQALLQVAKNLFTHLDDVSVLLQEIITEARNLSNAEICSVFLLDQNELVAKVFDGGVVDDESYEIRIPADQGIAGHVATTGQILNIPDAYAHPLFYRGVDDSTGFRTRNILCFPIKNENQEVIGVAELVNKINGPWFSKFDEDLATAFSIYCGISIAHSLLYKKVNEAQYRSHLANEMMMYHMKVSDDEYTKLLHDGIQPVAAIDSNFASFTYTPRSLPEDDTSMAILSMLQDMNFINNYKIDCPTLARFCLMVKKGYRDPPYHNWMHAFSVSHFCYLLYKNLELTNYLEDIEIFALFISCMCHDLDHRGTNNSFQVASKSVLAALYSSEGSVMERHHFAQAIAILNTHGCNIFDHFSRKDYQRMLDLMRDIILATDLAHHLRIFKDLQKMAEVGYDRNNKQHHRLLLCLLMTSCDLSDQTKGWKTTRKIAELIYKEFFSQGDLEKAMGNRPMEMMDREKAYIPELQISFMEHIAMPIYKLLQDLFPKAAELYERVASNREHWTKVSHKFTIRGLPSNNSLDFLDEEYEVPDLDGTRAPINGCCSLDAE
Description: Inhibition of recombinant PDE2A (unknown origin) expressed in baculovirus infected insect SF-21 cells using [3H]-cAMP as substrate after 30 mins by liquid scintillation counting analysis

[13] = target: T2, cAMP and cAMP-inhibited cGMP 3',5'-cyclic phosphodiesterase 10A (Homo sapiens, UniProt Q9Y233); test: Inhibition of recombinant PDE10A (unknown origin) expressed in baculovirus infected insect SF-21 cells using [3H]-cAMP as substrate after 30 mins by liquid scintillation counting analysis
T2 sequence (Q9Y233 whole entry): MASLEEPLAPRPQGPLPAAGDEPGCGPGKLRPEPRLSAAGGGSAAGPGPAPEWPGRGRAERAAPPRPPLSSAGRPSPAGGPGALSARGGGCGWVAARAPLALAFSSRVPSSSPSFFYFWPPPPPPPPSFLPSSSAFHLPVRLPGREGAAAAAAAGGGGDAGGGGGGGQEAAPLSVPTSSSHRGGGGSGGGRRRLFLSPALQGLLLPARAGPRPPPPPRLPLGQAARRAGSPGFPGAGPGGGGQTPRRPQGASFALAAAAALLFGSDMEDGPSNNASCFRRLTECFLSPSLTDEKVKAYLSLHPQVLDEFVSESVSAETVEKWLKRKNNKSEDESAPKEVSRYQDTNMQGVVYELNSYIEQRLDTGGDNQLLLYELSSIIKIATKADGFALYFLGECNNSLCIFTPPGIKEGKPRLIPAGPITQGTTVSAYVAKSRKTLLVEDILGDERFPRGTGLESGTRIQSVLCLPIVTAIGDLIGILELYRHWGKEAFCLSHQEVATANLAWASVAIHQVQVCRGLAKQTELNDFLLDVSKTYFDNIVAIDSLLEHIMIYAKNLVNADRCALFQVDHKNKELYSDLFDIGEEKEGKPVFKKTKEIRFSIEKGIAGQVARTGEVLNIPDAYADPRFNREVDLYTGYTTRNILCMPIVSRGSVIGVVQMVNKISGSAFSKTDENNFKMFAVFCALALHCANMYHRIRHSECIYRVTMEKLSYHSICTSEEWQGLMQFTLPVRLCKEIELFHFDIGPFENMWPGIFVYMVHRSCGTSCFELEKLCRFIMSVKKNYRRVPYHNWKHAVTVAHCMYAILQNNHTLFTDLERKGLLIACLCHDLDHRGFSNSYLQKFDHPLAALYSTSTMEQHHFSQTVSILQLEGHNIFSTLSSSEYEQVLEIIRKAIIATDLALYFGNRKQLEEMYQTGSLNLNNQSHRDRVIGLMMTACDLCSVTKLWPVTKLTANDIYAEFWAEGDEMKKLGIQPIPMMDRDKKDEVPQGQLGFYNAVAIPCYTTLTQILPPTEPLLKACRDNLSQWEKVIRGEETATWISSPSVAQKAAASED

[14] = target: T2, cAMP and cAMP-inhibited cGMP 3',5'-cyclic phosphodiesterase 10A
Description: Inhibition of PDE10A (unknown origin) using tritium labeled cAMP as substrate after 1 hr by scintillation proximity assay

[15] = target: T1, cGMP-dependent 3',5'-cyclic phosphodiesterase
Description: Inhibition of PDE2A (unknown origin) using tritium labeled cAMP as substrate after 1 hr by scintillation proximity assay

[16] = Selectivity ratio of IC50 for PDE (unknown origin) to IC50 for porcine/bovine heart myocardium PDE2; assay type: tissue-based
[17] = Selectivity ratio of IC50 for porcine/bovine PDE1C to IC50 for porcine/bovine heart myocardium PDE2; assay type: tissue-based
[18] = Inhibition of pig/bovine heart myocardium PDE2 after 15 mins by scintillation proximity assay in presence of [3H]-cAMP; assay type: tissue-based
Homo sapiens [19] = species: Homo sapiens; test: Selectivity ratio of IC50 for PDE9A (unknown origin) to IC50 for full length recombinant human PDE2A; conditions: tested as the 18F-labelled form
Homo sapiens [20] = species: Homo sapiens; test: Selectivity ratio of IC50 for PDE11 (unknown origin) to IC50 for full length recombinant human PDE2A; conditions: tested as the 18F-labelled form
Homo sapiens [21] = species: Homo sapiens; test: Selectivity ratio of IC50 for PDE8B (unknown origin) to IC50 for full length recombinant human PDE2A; conditions: tested as the 18F-labelled form
Homo sapiens [22] = species: Homo sapiens; test: Selectivity ratio of IC50 for PDE7B (unknown origin) to IC50 for full length recombinant human PDE2A; conditions: tested as the 18F-labelled form
Homo sapiens [23] = species: Homo sapiens; test: Selectivity ratio of IC50 for PDE6A (unknown origin) to IC50 for full length recombinant human PDE2A; conditions: tested as the 18F-labelled form
Homo sapiens [24] = species: Homo sapiens; test: Selectivity ratio of IC50 for PDE4D (unknown origin) to IC50 for full length recombinant human PDE2A; conditions: tested as the 18F-labelled form
Homo sapiens [25] = species: Homo sapiens; test: Selectivity ratio of IC50 for PDE5A (unknown origin) to IC50 for full length recombinant human PDE2A; conditions: tested as the 18F-labelled form
Homo sapiens [26] = species: Homo sapiens; test: Selectivity ratio of IC50 for PDE3A (unknown origin) to IC50 for full length recombinant human PDE2A; conditions: tested as the 18F-labelled form
Homo sapiens [27] = species: Homo sapiens; test: Selectivity ratio of IC50 for PDE1B (unknown origin) to IC50 for full length recombinant human PDE2A; conditions: tested as the 18F-labelled form

SMILES: Cc1nc2ccc(CN3CCOCC3)cc2n2c(-c3ccccc3Cl)nnc12
- concentration at 5 min [1]: 70 ng/g
- Ratio IC50 (Homo sapiens [2]): > 600

SMILES: CCC(CC)c1nn(CCO)c2c1N=C(c1ccc(-n3ccnc3C)cc1)CNC2=O
- clearance [3]: 70 mL/min/kg
- half-life [4]: 0.5 h

SMILES: COc1ncc(-c2cc(C3=Nc4c(C(C)(C)C)nn(CCO)c4C(=O)NC3)ccc2OC)cn1
- clearance [3]: 27 mL/min/kg
- half-life [4]: 1.5 h

SMILES: Cc1nc(-c2cnn(C)c2-c2ccc(C(F)(F)F)cn2)c2c(N3CCC3)ncnn12 [PF-05180999]
- Kp uu [5]: 0.5

SMILES: Cc1nc2ccc(CN3CCOCC3)cc2n2c(-c3c([18F])cccc3Cl)nnc12
- Drug uptake (Cerebellum [6]): 82%
- Drug uptake (Cerebellum [7]): 96%
- Drug uptake (Cerebrum [8]): 92%
- Drug uptake (Cerebrum [9]): 96%

SMILES: COc1cc2c(cc1-c1ccccc1)C(c1cccc(C(N)=O)c1)=NCC(=O)N2C
- inhibition (Bos taurus [10]): 14%
- inhibition (Bos taurus [11]): 23%

SMILES: COc1ccc2nnc3c(C)nc(-c4ccccc4Cl)n3c2n1
- IC50 [12]: 4 nM

SMILES: Cc1ccc2nc(C)c3nnc(-c4cc(OCCCC(F)(F)F)ccc4Cl)n3c2c1
- IC50 [13]: > 1000 nM

SMILES: COc1cccc2nc(C)c3nnc(-c4ccccc4Cl)n3c12
- IC50 [14]: 9 nM
- IC50 [15]: 6 nM

SMILES: COc1ccc(Cc2nc(O)c3c(C)nc([C@@H](CCCc4ccccc4)[C@@H](C)O)n3n2)cc1OC
- Ratio IC50 [16]: > 100
- Ratio IC50 [17]: 50
- IC50 [18]: 2 nM

SMILES: Cc1nc(-c2cnn(C)c2-c2ccc(C(F)(F)F)cc2)c2c(N3CC(F)C3)ncnn12
- Ratio IC50 (Homo sapiens [19]): > 20000
- Ratio IC50 (Homo sapiens [20]): > 20000
- Ratio IC50 (Homo sapiens [21]): > 20000
- Ratio IC50 (Homo sapiens [22]): > 20000
- Ratio IC50 (Homo sapiens [23]): > 20000
- Ratio IC50 (Homo sapiens [24]): > 20000
- Ratio IC50 (Homo sapiens [25]): > 20000
- Ratio IC50 (Homo sapiens [26]): > 20000
- Ratio IC50 (Homo sapiens [27]): > 20000
